Converted amounts (≈) assume the structure as drawn.
Columns and labels:
[1] = set-up: method as in doi:10.1016/j.dmpk.2016.10.205; conditions: rats; cited from earlier work
[2] = log D / log P, octanol/water; type: physicochemical
Protocol: ABN401 solution (10 μg/mL) was mixed with octanol at a ratio of 1:1 in a glass vial and placed horizontally in a Digital Bio Rotator (SeoLin Bioscience, Seongnam, Korea), and shaken at a constant 90 rpm for 24 h. After 6 h of equilibrium under room temperature, two phases of water and octanol were separated using a separating funnel. The experiment was repeated five times. The concentration of ABN401 at each phase was analyzed by HPLC and log P and log D were calculated using the Henderson-Hasselbalch equation below with the previously determined pKa value. (4) logDbases =logP+log⎣1/(1+ 10^pKa−pH)⎦

[3] = Six-month accelerated storage stability (HPLC); type: physicochemical; conditions: for decrease in the main peak: closed HDPE container
Protocol: (§1) An HPLC system (Shimadzu LC-20, Shimadzu, Kyoto, Japan) was used to analyze the solubility, dissolution profile, and degradation products as well as to determine the storage stability of ABN401. The wavelength of the UV detector was set at 282 nm. For quantification analysis, the Agilent Eclipse Plus C18 (5 μm, 4.6 × 150 mm) (Agilent technologies, Santa Clara, CA, USA) was used and maintained at 30 °C. The mobile phase was a mixture of acetonitrile and 50 mM acetate buffer at pH 5.0 at a volume ratio of 50 to 50 (v/v %). The flow rate of the mobile phase was 0.5 mL/min and the injection volume was 10 μL. A Kromasil C8 (5 μm, 4.6 × 250 mm) column was used for qualification analysis to observe the impurity profile during the storage stability test. The following gradient was applied: 0–20 min, 80% acetonitrile and 20% acetate buffer to 20% acetonitrile and 80% acetate buffer, maintained up to 25 min; 25– 28 min, back to 80% acetonitrile and 20% acetate buffer, maintained up to 35 min. The flow rate of the mobile phase was 1 mL/min and the injection volume was 10 μL.
After understanding the degradative factors for ABN401 (i.e., light and oxidation), accelerated storage stability is further evaluated for 6 months at different temperatures (i.e., less than 0 °C, 4 °C, 25 °C, and 40 °C; Figure 3) in a closed system. Seven peaks including the main peak and impurities were evaluated using qualitative HPLC method (Figure 2b). […] In addition, peak 1 increased from 0.08% to 0.19%. These changes in peaks 1, 2, and 3 were more distinguishable when the storage temperature increased to 40 °C. […] On the other hand, the total loss of ABN401 in all four conditions was only around 1.2%–3.1%.

[4] = Equilibrium solubility at different pHs and excipients by HPLC; type: physicochemical; conditions: thermodynamic from solid
Protocol: Solutions at pH values of 1 to 12 were prepared using HCl and NaOH. At first, 10^−1 N, 10^−2 N, 10^−3 N, 10^−4 N, 10^−5 N, and 10^−6 N of HCl and NaOH solutions were prepared and their pH values were measured with a pH meter (Metrohm 827 pH lab, Zurich, Switzerland). One milliliter of the 10^−4 N, 10^−5 N, and 10^−6 N of HCl and NaOH solutions was withdrawn and diluted in a 100 mL flask for more coordination. In each prepared solution (n = 3), excess ABN401 was dissolved and mixed for 24 h. All samples were centrifuged for 1 min at 12,000 rpm. The pH solubility of ABN401 was analyzed by HPLC and the pKa was determined by plotting a graph of log(solubility) against pH.
as §1
The solubility of ABN401 in two different acidic buffers (i.e., acetate and citrate) were analyzed at three different pH values: 4.0, 4.5, and 5.0 (Table 2). […] Different concentrations of PEG400, cremophor EL, and polysorbate 80 were also evaluated as co-solvents to ABN401 in 0.1 M acetate buffer at pH 4.0 to investigate the solubility enhancement. […] Therefore, 20% PEG400 in 0.1 M sodium acetate was selected as an oral gavage formulation and intravenous solution for in vivo studies. A short storage stability test was performed for 8 days in a cold chamber to determine the concentration recovery yields at low and high concentrations, which were 0.03 mg/mL and 133 mg/mL, respectively. […] As a result, pH 4.0 yielded the highest percentage recovery in both low and high concentrations (Table 3).

Structure (SMILES): CN1CCN(Cc2ccc(-c3cnc(N4CCOC(Cn5nnc6ncc(-c7cnn(C)c7)nc65)C4)nc3)cc2)CC1 (stereo not drawn) [ABN401]
- absolute bioavailability [1]: 45%
- logD ([2]; average ± SD of five runs): 1.41 ± 0.08
- logP at 24 h ([2]; average ± SD of five runs): 2.46 ± 0.04
- logD ([2]; pH 6.4, run 3, pH 6.40): 1.37
- logP at 24 h ([2]; run 1, from log D and pKa (Henderson-Hasselbalch)): 2.41
- logD ([2]; run 1, pH 6.41): 1.3
- logP at 24 h ([2]; run 2, from log D and pKa): 2.43
- logD ([2]; run 2, pH 6.59): 1.48
- logP at 24 h ([2]; run 3, from log D and pKa): 2.5
- logP at 24 h ([2]; run 4, from log D and pKa): 2.51
- logD ([2]; run 4, pH 6.49): 1.47
- logP at 24 h ([2]; run 5, from log D and pKa): 2.45
- logD ([2]; run 5, pH 6.53): 1.45
- decrease in the main peak ([3]; 6 months, 0 °C (frozen) and 4 °C): < 0.5%
- decrease in the main peak ([3]; 6 months, 25 °C): > 0.5%
- main peak remaining ([3]; 6 months, all conditions): around 98%
- purity remaining ([3]; after 6 months accelerated storage): over 97%
- solubility at 24 h ([4]; 20% PEG 400 in 0.1 M acetate buffer, aqueous with cosolvent or surfactant or cyclodextrin, PEG 400 (20 %), co-solvent in 0.1 M acetate buffer pH 4.0): 8.01 mg/mL (≈ 14.1 mM)
- solubility at 24 h ([4]; 40% PEG 400 in 0.1 M acetate buffer, aqueous with cosolvent or surfactant or cyclodextrin, PEG 400 (40 %), co-solvent in 0.1 M acetate buffer pH 4.0): 8.8 mg/mL (≈ 15.5 mM)
- solubility at 24 h ([4]; 60% PEG 400 in 0.1 M acetate buffer, aqueous with cosolvent or surfactant or cyclodextrin, PEG 400 (60 %), co-solvent in 0.1 M acetate buffer pH 4.0): 9.48 mg/mL (≈ 16.7 mM)
- solubility at 24 h ([4]; 80% PEG 400 in 0.1 M acetate buffer, aqueous with cosolvent or surfactant or cyclodextrin, PEG 400 (80 %), co-solvent in 0.1 M acetate buffer pH 4.0): 12.6 mg/mL (≈ 22.1 mM)
- solubility at 24 h ([4]; aqueous buffer, 0.1 M acetate buffer (pH 4.0)): 7.14 mg/mL (≈ 12.6 mM)
- solubility at 24 h ([4]; aqueous buffer, 0.1 M acetate buffer (pH 4.5)): 2.29 mg/mL (≈ 4.04 mM)
- solubility at 24 h ([4]; aqueous buffer, 0.1 M acetate buffer (pH 5.0)): 0.56 mg/mL (≈ 0.988 mM)
- solubility at 24 h ([4]; aqueous buffer, 0.1 M citrate buffer (pH 4.0)): 0.06 mg/mL (≈ 0.106 mM)
- solubility at 24 h ([4]; aqueous buffer, 0.1 M citrate buffer (pH 4.5)): 0.03 mg/mL (≈ 0.0529 mM)
- solubility at 24 h ([4]; aqueous buffer, 0.1 M citrate buffer (pH 5.0)): 0.02 mg/mL (≈ 0.0353 mM)
- solubility at 24 h ([4]; aqueous buffer, 1× PBS (pH 7.4)): 0.01 mg/mL (≈ 0.0176 mM)
- solubility at 24 h ([4]; hydrochloric acid solution, aqueous buffer, Hydrochloric (pH 2.5)): 26 mg/mL (≈ 45.8 mM)
- solubility at 24 h ([4]; hydrochloric acid solution, aqueous buffer, Hydrochloric (pH 5.0)): 3.92 mg/mL (≈ 6.92 mM)
- solubility at 24 h ([4]; organic solvent or mixture, Cremophor EL (100 %)): 14.1 mg/mL (≈ 24.9 mM)
- solubility at 24 h ([4]; organic solvent or mixture, PEG 400 (100 %)): 15.5 mg/mL (≈ 27.3 mM)
- solubility at 24 h ([4]; organic solvent or mixture, Polysorbate 80 (100 %)): 8.46 mg/mL (≈ 14.9 mM)

From article PMC7076440, “New Preclinical Development of a c-Met Inhibitor and Its Combined Anti-Tumor Effect in c-Met-Amplified NSCLC” (Pharmaceutics, 2020)
